From patent US5773646A, “Meta-substituted phenylene derivatives” (G. D. Searle & Co., priority 1997, dated 1998)
Where a name gives a salt, the structure may show the parent alone.

Tests used:
[1] = target: T1, Human vitronectin receptor (αv β3) (Homo sapiens, UniProt P05106+P06756); test: Vitronectin adhesion assay (solid phase receptor assay, biotinylated vitronectin competition); assay type: binding; details: inhibition of 50% of the maximum binding of biotinylated vitronectin; 1 nM labeled ligand, 2 hours, room temperature, highest concentration of test compound 1.0×10^-4 M; read-out: AvB3 IC50
T1 construct: Human vitronectin receptor(αv β3) was purified from human placenta; from tissue; host or cells: human placenta
Outline: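 Placenta-purified αvβ3 coated at 1.0 μg/mL in TBS (1 mM Ca, Mg, Mn, pH 7.4), overnight 4 °C. Compound competed 2 h at RT with 1 nM biotinylated vitronectin (final; top compound 1.0×10^-4 M); bound ligand detected by HRP anti-biotin/OPD at 450 nm, normalized to no-competitor controls, four-parameter fit.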

[2] = target: T2, Human fibrinogen receptor (αIIb β3) (Homo sapiens, UniProt P05106+P08514); test: Purified IIb/IIIa receptor assay (solid phase receptor assay, biotinylated vitronectin competition); details: inhibition of 50% of the maximum binding of biotinylated vitronectin; 1 nM labeled ligand, 2 hours, room temperature, highest concentration of test compound 1.0×10^-4 M
T2 construct: Human fibrinogen receptor (αIIb β3) was purified from outdated platelets; from tissue; host or cells: outdated human platelets
Outline: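 Platelet-purified αIIbβ3 was coated at 100 ng/well in TBS with 1 mM Ca²⁺/Mg²⁺/Mn²⁺, pH 7.4, then BSA-blocked. Compound (up to 1.0×10⁻⁴ M final) competed with 1 nM biotinylated vitronectin for 2 h at room temperature. Bound ligand was detected with HRP anti-biotin at A450, normalized to maximum binding, and curve-fitted.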

IC50 [1]: 23.2 nM | IC50 [2]: 706 nM
Compound: N=C(N)Nc1cccc(S(=O)(=O)Nc2cccc(C(CC(=O)O)c3ccccc3O)c2)c1 (stereo not drawn) [Example 102, Sodium β-[3-[[[3[(aminoiminomethyl)amino]phenyl]-sulfonyl]amino]phenyl]-2-hydroxybenzenepropanoate, Trifluoroacetate Salt]
